System: HUVEC/MSC spheroids viability
Assay: Human HUVEC/MSC cell line growth inhibition [KRAS2];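 as to viability, T/C: percent of DMSO vehicle control luminescence so 100% = untreated viability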
Details: for IC50: curve of first compound; for viability, T/C: stronger effect = lower value
In short: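 Growth/viability of tumour-free HUVEC–hMSC spheroids was measured after exposure to targeted small molecules and KRAS inhibitors, singly or in combination. Agents were diluted in half-log steps from Cmax-based top concentrations, capped at 10 microM without known Cmax.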

SMILES: COc1cc2nccc(Oc3ccc(NC(=O)C4(C(=O)Nc5ccc(F)cc5)CC4)cc3)c2cc1OC + C=CC(=O)N1CCN(c2nc(=O)n(-c3c(C)ccnc3C(C)C)c3nc(-c4c(O)cccc4F)c(F)cc23)C(C)C1
- IC50 (second compound 0.0316 µM): > 10 µM
- IC50 (second compound 0.1 µM): 6.21 µM
- IC50 (second compound 0.316 µM): 7.63 µM
- IC50 (second compound 1 µM): 9.55 µM
- IC50 (second compound 3.16 µM): > 10 µM
- IC50 (second compound 10 µM): 8.55 µM
- viability, T/C (second compound 0.0316 µM, first compound 0.0316 µM): 66.7%
- viability, T/C (second compound 0.0316 µM, first compound 0.1 µM): 102%
- viability, T/C (second compound 0.0316 µM, first compound 0.316 µM): 63.2%
- viability, T/C (second compound 0.0316 µM, first compound 1 µM): 72.4%
- viability, T/C (second compound 0.0316 µM, first compound 3.16 µM): 77.2%
- viability, T/C (second compound 0.0316 µM, first compound 10 µM): 51.5%
- viability, T/C (second compound 0.1 µM, first compound 0.0316 µM): 61.5%
- viability, T/C (second compound 0.1 µM, first compound 0.1 µM): 71%
- viability, T/C (second compound 0.1 µM, first compound 0.316 µM): 89.2%
- viability, T/C (second compound 0.1 µM, first compound 1 µM): 92.6%
- viability, T/C (second compound 0.1 µM, first compound 3.16 µM): 91.7%
- viability, T/C (second compound 0.1 µM, first compound 10 µM): 27.8%
- viability, T/C (second compound 0.316 µM, first compound 0.0316 µM): 79.2%
- viability, T/C (second compound 0.316 µM, first compound 0.1 µM): 108%
- viability, T/C (second compound 0.316 µM, first compound 0.316 µM): 96.6%
- viability, T/C (second compound 0.316 µM, first compound 1 µM): 80.6%
- viability, T/C (second compound 0.316 µM, first compound 3.16 µM): 83.3%
- viability, T/C (second compound 0.316 µM, first compound 10 µM): 40.2%
- viability, T/C (second compound 1 µM, first compound 0.0316 µM): 87%
- viability, T/C (second compound 1 µM, first compound 0.1 µM): 89.5%
- viability, T/C (second compound 1 µM, first compound 0.316 µM): 111%
- viability, T/C (second compound 1 µM, first compound 1 µM): 92.4%
- viability, T/C (second compound 1 µM, first compound 3.16 µM): 92.6%
- viability, T/C (second compound 1 µM, first compound 10 µM): 48.2%
- viability, T/C (second compound 3.16 µM, first compound 0.0316 µM): 103%
- viability, T/C (second compound 3.16 µM, first compound 0.1 µM): 124%
- viability, T/C (second compound 3.16 µM, first compound 0.316 µM): 129%
- viability, T/C (second compound 3.16 µM, first compound 1 µM): 88%
- viability, T/C (second compound 3.16 µM, first compound 3.16 µM): 84.2%
- viability, T/C (second compound 3.16 µM, first compound 10 µM): 56.9%
- viability, T/C (second compound 10 µM, first compound 0.0316 µM): 112%
- viability, T/C (second compound 10 µM, first compound 0.1 µM): 102%
- viability, T/C (second compound 10 µM, first compound 0.316 µM): 109%
- viability, T/C (second compound 10 µM, first compound 1 µM): 97.9%
- viability, T/C (second compound 10 µM, first compound 3.16 µM): 123%
- viability, T/C (second compound 10 µM, first compound 10 µM): 40.7%

SMILES: CC1(C)CCC(CN2CCN(c3ccc(C(=O)NS(=O)(=O)c4ccc(NCC5CCOCC5)c([N+](=O)[O-])c4)c(Oc4cnc5[nH]ccc5c4)c3)CC2)=C(c2ccc(Cl)cc2)C1 + C=CC(=O)N1CCN(c2nc(OCC3CCCN3C)nc3c2CCN(c2cccc4cccc(C)c24)C3)CC1CC#N
- IC50 (second compound 0.00949 µM): 5.12 µM
- IC50 (second compound 0.03 µM): 4.76 µM
- IC50 (second compound 0.0949 µM): 4.68 µM
- IC50 (second compound 0.3 µM): 3.93 µM
- IC50 (second compound 0.949 µM): 3.55 µM
- IC50 (second compound 3 µM): 3.41 µM
- viability, T/C (second compound 0.00949 µM, first compound 0.0316 µM): 105%
- viability, T/C (second compound 0.00949 µM, first compound 0.1 µM): 86.2%
- viability, T/C (second compound 0.00949 µM, first compound 0.316 µM): 96.9%
- viability, T/C (second compound 0.00949 µM, first compound 1 µM): 91.4%
- viability, T/C (second compound 0.00949 µM, first compound 3.16 µM): 83.5%
- viability, T/C (second compound 0.00949 µM, first compound 10 µM): 3.48%
- viability, T/C (second compound 0.03 µM, first compound 0.0316 µM): 99.3%
- viability, T/C (second compound 0.03 µM, first compound 0.1 µM): 92%
- viability, T/C (second compound 0.03 µM, first compound 0.316 µM): 111%
- viability, T/C (second compound 0.03 µM, first compound 1 µM): 94.4%
- viability, T/C (second compound 0.03 µM, first compound 3.16 µM): 76%
- viability, T/C (second compound 0.03 µM, first compound 10 µM): 3.1%
- viability, T/C (second compound 0.0949 µM, first compound 0.0316 µM): 83.1%
- viability, T/C (second compound 0.0949 µM, first compound 0.1 µM): 103%
- viability, T/C (second compound 0.0949 µM, first compound 0.316 µM): 84.1%
- viability, T/C (second compound 0.0949 µM, first compound 1 µM): 94.6%
- viability, T/C (second compound 0.0949 µM, first compound 3.16 µM): 75.1%
- viability, T/C (second compound 0.0949 µM, first compound 10 µM): 1.65%
- viability, T/C (second compound 0.3 µM, first compound 0.0316 µM): 73.4%
- viability, T/C (second compound 0.3 µM, first compound 0.1 µM): 75.9%
- viability, T/C (second compound 0.3 µM, first compound 0.316 µM): 78.7%
- viability, T/C (second compound 0.3 µM, first compound 1 µM): 96.8%
- viability, T/C (second compound 0.3 µM, first compound 3.16 µM): 61.3%
- viability, T/C (second compound 0.3 µM, first compound 10 µM): 1.21%
- viability, T/C (second compound 0.949 µM, first compound 0.0316 µM): 67.6%
- viability, T/C (second compound 0.949 µM, first compound 0.1 µM): 80.8%
- viability, T/C (second compound 0.949 µM, first compound 0.316 µM): 72%
- viability, T/C (second compound 0.949 µM, first compound 1 µM): 87.5%
- viability, T/C (second compound 0.949 µM, first compound 3.16 µM): 55.3%
- viability, T/C (second compound 0.949 µM, first compound 10 µM): 3.31%
- viability, T/C (second compound 3 µM, first compound 0.0316 µM): 81%
- viability, T/C (second compound 3 µM, first compound 0.1 µM): 86.1%
- viability, T/C (second compound 3 µM, first compound 0.316 µM): 94.8%
- viability, T/C (second compound 3 µM, first compound 1 µM): 71.2%
- viability, T/C (second compound 3 µM, first compound 3.16 µM): 54.7%
- viability, T/C (second compound 3 µM, first compound 10 µM): 0.24%
